Measurements as given in patent EP4563149A1, “LURBINECTEDIN, ECUBECTEDIN AND A RELATED COMPOUND FOR USE IN THE TREATMENT OF SKIN CANCERS” (Pharma Mar, S.A., priority 2023, dated 2025).

Tests used:
MM029 = experiment: Cell viability assay (PrestoBlue), 72h; details: Homo sapiens
Experimental: (§3) Cells were grown at 37°C in 5% CO2 (10% for Hermes 3A) and were regularly checked for mycoplasma contamination. […] Melanoma IGR cell lines (IGR37 and IGR39) were grown in RPMI w/o HEPES (Gibco, Invitrogen) supplemented with 15% FCS and gentamycin.
(§4) To determine the IC50 (half maximal inhibitory concentration) of these cells to various inhibitors, cell viability assays were performed.
(§5) After 72h of treatment with different concentrations of the compounds, cells were treated with PrestoBlue reagent according to the manufacturer's instructions. The absorbance per well was measured with a Cellinsight CX5 microplate reader. Data were analyzed using Prism9 statistical software.

MM074 = experiment: Cell viability assay (PrestoBlue), 72h; details: Homo sapiens
Experimental: (§6) Cells were grown at 37°C in 5% CO2 (10% for Hermes 3A) and were regularly checked for mycoplasma contamination. […] Melanoma cell lines 501mel and SKmel28 were grown in RPMI w/o HEPES (Gibco, Invitrogen) supplemented with 10% FCS and gentamycin. Vemurafenib-resistant cells (501melVemuR and MM074VemuR) were additionally supplemented with 1.5 µM of vemurafenib. Melanoma IGR cell lines (IGR37 and IGR39) were grown in RPMI w/o HEPES (Gibco, Invitrogen) supplemented with 15% FCS and gentamycin.
as §4, §5

MM074 melanospheres [1] = experiment: Melanosphere viability (CellTiterGlo); format: cell-based, human; details: 72h, doses equivalent to 5×IC50
Experimental: (§1) MM074 proliferative/differentiated cell line were seeded (5×10^4 cells) in ultra-low attachment hydrogel-layered 96 well plates in KO DMEM medium supplemented with 20% KSR, AANE, 2 mM Glutamax, Penicillin/Streptomycin and 100 uM Beta-mercaptoethanol. To allow for melanosphere formation, cells were left to grow for 4 days before drug treatment.
To analyze melanosphere viability after drug treatment, cells were treated with CellTiterGlo reagent (Promega) according to the manufacturer's instructions. Luminescence signals were measured with a Centro XS LB 960 microplate reader (Berthold).

MM047 = experiment: Cell viability assay (PrestoBlue), 72h; details: Homo sapiens
Experimental: as §3, §4, §5

SKMEL-28 = experiment: Cell viability assay (PrestoBlue), 72h; details: Homo sapiens, SK-MEL-28, 72 h
Experimental: as §6, §4, §5

501mel^VemuR = experiment: Cell viability assay (PrestoBlue), 72h; details: Homo sapiens
Experimental: (§7) Cells were grown at 37°C in 5% CO2 (10% for Hermes 3A) and were regularly checked for mycoplasma contamination. MM patient-derived short-term melanoma cultures (MM011, MM074, MM117, MM029, MM047, MM099) were grown in HAM-F10 (Gibco, Invitrogen) supplemented with 10% Fetal Calf Serum (FCS), 25 mM HEPES, 5.2 mM GLUTAMAX and penicillin-streptomycin. Melanoma cell lines 501mel and SKmel28 were grown in RPMI w/o HEPES (Gibco, Invitrogen) supplemented with 10% FCS and gentamycin. Vemurafenib-resistant cells (501melVemuR and MM074VemuR) were additionally supplemented with 1.5 µM of vemurafenib. Melanoma IGR cell lines (IGR37 and IGR39) were grown in RPMI w/o HEPES (Gibco, Invitrogen) supplemented with 15% FCS and gentamycin.
as §4, §5

MM074^VemuR = experiment: Cell viability assay (PrestoBlue), 72h; details: Homo sapiens
Experimental: as §7, §4, §5

MM117 = experiment: Cell viability assay (PrestoBlue), 72h; details: Homo sapiens
Experimental: as §6, §4, §5

MM099 = experiment: Cell viability assay (PrestoBlue), 72h; details: Homo sapiens
Experimental: as §3, §4, §5

IGR37 [2] = experiment: Cell viability assay (PrestoBlue), 72h, last line of Table 2; details: Homo sapiens, IGR-37, 72 h
Experimental: as §3, §4, §5

Hermes3A = experiment: Cell viability assay (PrestoBlue), 72h; details: for IC50: Homo sapiens, Melanocyte, 72 h
Experimental: as §3, §4, §5

MM011 = experiment: Cell viability assay (PrestoBlue), 72h; details: Homo sapiens
Experimental: as §6, §4, §5

501mel = experiment: Cell viability assay (PrestoBlue), 72h; details: Homo sapiens
Experimental: as §6, §4, §5

IGR37 [3] = experiment: Cell viability assay (PrestoBlue), 72h; details: Homo sapiens, IGR-37, 72 h
Experimental: as §6, §4, §5

[4] = test system: RPB1 (RNA pol II elongation subunit); experiment: Immunoblotting of RPB1 in 501mel; format: cell-based, human; details: 24h at 5×IC50
Experimental: Cells were washed once with cold PBS, rinsed with a cell scraper, pelleted and resuspended in LSDB 0.5M buffer (0.5M KCI, 50mM Tris HCl pH 7.9, 20% Glycerol, 1% NP40, 1mM DTT, PIC). Afterwards cells were fully disrupted with 3 cycles of heat shock in liquid nitrogen and 37°C water bath and centrifugated 15min at 14,000rpm to pellet cell debris. Ten micrograms of extract were loaded on SDS-PAGE before transfer to nitro-cellulose membranes and immunoblotting.

melanoma cells [5] = experiment: Cell proliferation by CellTrace Violet flow cytometry; format: cell-based, human; details: IC50 concentrations, compared to DMSO
Experimental: (§2) After 48h of incubation, cells were rinsed and incubated with AnnexinV-APC (BD Biosciences). Cell proliferation and apoptosis were detected on a BD LSRFortessaTM Flow Cytometer. Data were analyzed with FlowJo software. To define slow proliferating or apoptotic cells: it was considered that slow proliferating cells represented the 30% of cells with the highest concentration of CellTrace Violet signal in the DMSO control. […] For apoptotic cells, it was considered the 20% of cells with the highest signal of AnnexinV-APC in the DMSO control.

[6] = test system: melanoma cell cultures or cell lines; experiment: Clonogenic assay; format: cell-based, human; details: 48h at IC50 concentrations, then 10 days without drug
Experimental: Based on the cell viability assays conducted above, the efficacy of lurbinectedin, PM14 or Compound IA on melanoma cell proliferation was investigated. Initially, a clonogenic assay was performed. Cells were drug-treated at IC50 concentrations during 48h before seeding 1×10^3 or 2×10^3 cells in 6-well plates without drug, wherein they grew for 10 days to allow for colony formation. Afterwards, cells were fixed for 10min with 4% formaldehyde solution, washed once with PBS and stained with Crystal Violet solution 0.2% for 15 min. The wells were finally washed twice with deionized water, air dried, scanned and analyzed with Fiji software to count the number of colonies.

melanoma cells [7] = experiment: Apoptosis by flow cytometry (AnnexinV-APC); format: cell-based, human; details: IC50 concentrations, Annexin V-APC
Experimental: as §2

melanoma cells 501mel = experiment: Cell cycle analysis by flow cytometry (PI); format: cell-based, human; details: IC50 concentrations
Experimental: For cell cycle analysis, 2×10^6 cells were seeded in 6 well plates. […] After 2 washes with cold PBS, cells were incubated with RNAse A and PI for 1h in the dark, before being analyzed on a BD LSRFortessaTM Flow Cytometer. Data were analysed with FlowJo software.

all melanoma cells = experiment: Cell viability assay (PrestoBlue), summary over all melanoma cells; format: cell-based; details: Homo sapiens, read-out: IC50 values
MM074 melanospheres [8] = experiment: Melanosphere apoptosis (AnnexinV-APC / propidium iodide); format: cell-based, human; details: 72h
Experimental: as §1
For apoptosis assays with 3D-grown melanoma cells, TrypLe Select 10x reagent (Gibco) was used to dissociate melanospheres to obtain single-cell suspensions. These cells were incubated with AnnexinV-APC (Biolegend) and Propidium Iodide (PI, Biolegend). With bivariant dot plots, it was distinguished between viable (AnnexinV-/PI-), early apoptotic (AnnexinV+/PI-), late apoptotic (AnnexinV+/PI+) and necrotic cells (AnnexinV-/PI+).

Compound | IC50 (MM029) [nM] | IC50 (MM074) [nM] | cell viability in 3D culture (MM074 melanospheres [1]) | IC50 (MM047) [nM] | IC50 (SKMEL-28) [nM] | IC50 (501mel^VemuR) [nM] | IC50 (MM074^VemuR) [nM] | IC50 (MM117) [nM] | IC50 (MM099) [nM] | IC50 (IGR37 [2]) [nM] | IC50 (Hermes3A) [nM] | IC50 (MM011) [nM] | IC50 (501mel) [nM] | IC50 (IGR37 [3]) [nM] | also measured
CC(C)(C)c1nc(-c2cccc(NS(=O)(=O)c3c(F)cccc3F)c2F)c(-c2ccnc(N)n2)s1 [dabrafenib] | > 50 | 4.68 | unable to reduce cell viability | > 50 | 1 | > 50 | > 50 | > 50 | > 50 | > 50 | > 50 | > 50 | > 50 | 25.3 | 
COc1ccc2[nH]c3c(c2c1)CCN[C@]31CS[C@@H]2c3c(OC(C)=O)c(C)c4c(c3[C@H](COC1=O)N1[C@@H]2[C@H]2c3c(cc(C)c(OC)c3O)C[C@@H]([C@@H]1O)N2C)OCO4 [lurbinectedin] | 1.28 | 1.06 | significant cytotoxic effects | 0.45 | 1.17 | 1.07 | 1.36 | 0.3 | 0.73 | 0.41 | 2.67 | 0.47 | 0.37 | 0.5 | RPB1 (RNA pol II elongation subunit) degradation [4]: minimal; melanoma cell proliferation (melanoma cells [5]): significant inhibition; colony formation (number of colonies) [6]: significant impact; sensitivity of non-cancerous Hermes3A immortalized melanocytes compared with the melanoma cells (Hermes3A; Hermes3A versus melanoma cells): less sensitive; apoptosis (melanoma cells [7]): induction of apoptosis; cell cycle progression (melanoma cells 501mel): notable blockade; IC50 (all melanoma cells): 0.3 to 4.73 nM; late apoptotic cells positive for Annexin V and propidium iodide (MM074 melanospheres [8]): substantial population of late apoptotic cells
CC(=O)Nc1cccc(-n2c(=O)n(C3CC3)c(=O)c3c(Nc4ccc(I)cc4F)n(C)c(=O)c(C)c32)c1 [trametinib] | > 50 | 0.51 |  | > 50 | 5.12 | > 50 | 4.65 | 10.2 | > 50 | > 50 | > 50 | > 50 | 3 | 0.53 | 
CCCS(=O)(=O)Nc1ccc(F)c(C(=O)c2c[nH]c3ncc(-c4ccc(Cl)cc4)cc23)c1F [vemurafenib] | > 10000 | 225 |  | > 10000 | > 10000 | > 10000 | > 10000 | 488 | > 10000 | > 10000 | > 10000 | > 10000 | 2440 | 517 | 
